PubChem BioAssay (NCI)
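Following 48 hours of exposure in 96-well plates, responses at five concentrations were used to interpolate endpoints linearly. TGI: total growth inhibition.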

How the values were obtained:
Assay in all cases: NCI-60 cell line screen, 48 h
[1] = system: BT-549 breast
[2] = system: ACHN renal
[3] = system: M14 melanoma
[4] = system: COLO 205 colon
[5] = system: RPMI-8226 leukemia
[6] = system: SF-295 CNS
[7] = system: UACC-257 melanoma
[8] = system: HS 578T breast
[9] = system: OVCAR-5 ovarian
[10] = system: TK-10 renal
[11] = system: U251 CNS
[12] = system: HCT-116 colon
[13] = system: CAKI-1 renal
[14] = system: UO-31 renal
[15] = system: NCI-H460 lung
[16] = system: HOP-62 NSCLC
[17] = system: MCF7 breast
[18] = system: HCC-2998 colon
[19] = system: MDA-N
[20] = system: NCI-H23 lung
[21] = system: SK-OV-3 ovarian
[22] = system: T-47D breast
[23] = system: MDA-MB-435
[24] = system: HCT-15 colon
[25] = system: SK-MEL-5 melanoma
[26] = system: SK-MEL-28 melanoma
[27] = system: CCRF-CEM leukemia
[28] = system: K-562 leukemia
[29] = system: UACC-62 melanoma
[30] = system: HL-60(TB) leukemia
[31] = system: RXF 393 renal
[32] = system: SN12C renal
[33] = system: OVCAR-3 ovarian
[34] = system: A498 renal
[35] = system: LOX IMVI melanoma
[36] = system: NCI-H226 lung
[37] = system: NCI-H522 lung
[38] = system: MOLT-4 leukemia
[39] = system: NCI/ADR-RES ovarian
[40] = system: OVCAR-8 ovarian
[41] = system: A549 NSCLC
[42] = system: SK-MEL-2 melanoma
[43] = system: SF-268 CNS
[44] = system: OVCAR-4 ovarian
[45] = system: EKVX NSCLC
[46] = system: HOP-92 NSCLC
[47] = system: KM12 colon
[48] = system: SW-620 colon
[49] = system: DU-145 prostate
[50] = system: MDA-MB-231 breast
[51] = system: SNB-19 CNS
[52] = system: SF-539 CNS
[53] = system: MALME-3M melanoma
[54] = system: 786-0 renal
[55] = system: PC-3 prostate
[56] = system: HT29 colon
[57] = system: SNB-75 CNS
[58] = system: IGROV1 ovarian
[59] = system: SR leukemia

COc1cc(/C=C2/SC(c3ccccc3)N(c3cccc([N+](=O)[O-])c3)C2=O)cc(OC)c1OC (stereo not drawn)
TGI [1]: > 100 µM
TGI [2]: > 100 µM
TGI [3]: > 100 µM
TGI [4]: > 100 µM
TGI [5]: > 100 µM
TGI [6]: > 100 µM
TGI [7]: > 100 µM
TGI [8]: > 100 µM
TGI [9]: > 100 µM
TGI [10]: > 100 µM
TGI [11]: > 100 µM
TGI [12]: > 100 µM
TGI [13]: > 100 µM
TGI [14]: > 100 µM
TGI [15]: > 100 µM
TGI [16]: > 100 µM
TGI [17]: > 100 µM
TGI [18]: > 100 µM
TGI [19]: 78.6 µM
TGI [20]: > 100 µM
TGI [21]: > 100 µM
TGI [22]: > 100 µM
TGI [23]: 86.4 µM
TGI [24]: > 100 µM
TGI [25]: > 100 µM
TGI [26]: > 100 µM
TGI [27]: > 100 µM
TGI [28]: > 100 µM
TGI [29]: > 100 µM
TGI [30]: > 100 µM
TGI [31]: > 100 µM
TGI [32]: > 100 µM
TGI [33]: > 100 µM
TGI [34]: > 100 µM
TGI [35]: > 100 µM
TGI [36]: > 100 µM
TGI [37]: > 100 µM
TGI [38]: > 100 µM
TGI [39]: > 100 µM
TGI [40]: > 100 µM
TGI [41]: > 100 µM
TGI [42]: > 100 µM
TGI [43]: > 100 µM
TGI [44]: > 100 µM
TGI [45]: > 100 µM
TGI [46]: > 100 µM
TGI [47]: > 100 µM
TGI [48]: > 100 µM
TGI [49]: > 100 µM
TGI [50]: > 100 µM
TGI [51]: > 100 µM
TGI [52]: > 100 µM
TGI [53]: > 100 µM
TGI [54]: > 100 µM

Cc1cc(S(=O)(=O)Nc2nc(N)nc(N3N=CCC3C)n2)c(S)cc1Cl (stereo not drawn)
TGI [1]: > 10 µM
TGI [2]: > 10 µM
TGI [3]: > 10 µM
TGI [4]: > 10 µM
TGI [5]: > 10 µM
TGI [6]: > 10 µM
TGI [7]: > 10 µM
TGI [8]: > 10 µM
TGI [9]: > 10 µM
TGI [10]: > 10 µM
TGI [11]: > 10 µM
TGI [12]: > 10 µM
TGI [13]: > 10 µM
TGI [14]: > 10 µM
TGI [55]: > 10 µM
TGI [15]: > 10 µM
TGI [16]: > 10 µM
TGI [17]: > 10 µM
TGI [18]: > 10 µM
TGI [19]: > 10 µM
TGI [20]: > 10 µM
TGI [21]: > 10 µM
TGI [22]: > 10 µM
TGI [24]: > 10 µM
TGI [25]: > 10 µM
TGI [26]: > 10 µM
TGI [27]: > 10 µM
TGI [56]: > 10 µM
TGI [28]: > 10 µM
TGI [30]: > 10 µM
TGI [31]: > 10 µM
TGI [32]: > 10 µM
TGI [33]: > 10 µM
TGI [34]: > 10 µM
TGI [35]: > 10 µM
TGI [36]: > 10 µM
TGI [37]: > 10 µM
TGI [38]: > 10 µM
TGI [39]: > 10 µM
TGI [40]: > 10 µM
TGI [41]: > 10 µM
TGI [42]: > 10 µM
TGI [57]: > 10 µM
TGI [43]: > 10 µM
TGI [44]: > 10 µM
TGI [45]: > 10 µM
TGI [46]: > 10 µM
TGI [47]: > 10 µM
TGI [58]: > 10 µM
TGI [48]: > 10 µM
TGI [49]: > 10 µM
TGI [51]: > 10 µM
TGI [59]: > 10 µM
TGI [52]: > 10 µM
TGI [53]: > 10 µM
TGI [54]: > 10 µM

CCOC(=O)C(O)(NC(C)=O)C(F)(F)F (stereo not drawn)
TGI [1]: > 100 µM
TGI [2]: > 100 µM
TGI [3]: > 100 µM
TGI [4]: > 100 µM
TGI [5]: > 100 µM
TGI [6]: > 100 µM
TGI [7]: > 100 µM
TGI [8]: > 100 µM
TGI [9]: > 100 µM
TGI [10]: > 100 µM
TGI [11]: > 100 µM
TGI [12]: > 100 µM
TGI [13]: > 100 µM
TGI [14]: > 100 µM
TGI [55]: > 100 µM
TGI [16]: > 100 µM
TGI [17]: > 100 µM
TGI [18]: > 100 µM
TGI [19]: > 100 µM
TGI [20]: > 100 µM
TGI [21]: > 100 µM
TGI [22]: > 100 µM
TGI [23]: > 100 µM
TGI [24]: > 100 µM
TGI [25]: > 100 µM
TGI [26]: > 100 µM
TGI [27]: > 100 µM
TGI [56]: > 100 µM
TGI [28]: > 100 µM
TGI [29]: > 100 µM
TGI [30]: > 100 µM
TGI [31]: > 100 µM
TGI [32]: > 100 µM
TGI [33]: > 100 µM
TGI [35]: > 100 µM
TGI [36]: > 100 µM
TGI [37]: > 100 µM
TGI [38]: > 100 µM
TGI [39]: > 100 µM
TGI [40]: > 100 µM
TGI [41]: > 100 µM
TGI [42]: > 100 µM
TGI [57]: > 100 µM
TGI [43]: > 100 µM
TGI [44]: > 100 µM
TGI [45]: > 100 µM
TGI [46]: > 100 µM
TGI [47]: > 100 µM
TGI [58]: > 100 µM
TGI [48]: > 100 µM
TGI [49]: > 100 µM
TGI [51]: > 100 µM
TGI [59]: > 100 µM
TGI [52]: > 100 µM
TGI [53]: > 100 µM

COC(=O)[C@@H]1N2C(=S)N(c3ccccc3)C(=O)[C@H]2SC1(C)C
TGI [1]: > 100 µM
TGI [2]: > 100 µM
TGI [3]: > 100 µM
TGI [4]: > 100 µM
TGI [5]: > 100 µM
TGI [6]: > 100 µM
TGI [7]: > 100 µM
TGI [9]: > 100 µM
TGI [10]: > 100 µM
TGI [11]: > 100 µM
TGI [12]: > 100 µM
TGI [13]: > 100 µM
TGI [14]: > 100 µM
TGI [55]: > 100 µM
TGI [15]: > 100 µM
TGI [16]: > 100 µM
TGI [17]: > 100 µM
TGI [18]: > 100 µM
TGI [19]: > 100 µM
TGI [20]: > 100 µM
TGI [21]: > 100 µM
TGI [22]: > 100 µM
TGI [23]: > 100 µM
TGI [24]: > 100 µM
TGI [25]: > 100 µM
TGI [26]: > 100 µM
TGI [56]: > 100 µM
TGI [29]: > 100 µM
TGI [31]: > 100 µM
TGI [32]: > 100 µM
TGI [33]: > 100 µM
TGI [34]: > 100 µM
TGI [36]: > 100 µM
TGI [37]: > 100 µM
TGI [38]: > 100 µM
TGI [39]: > 100 µM
TGI [40]: > 100 µM
TGI [41]: > 100 µM
TGI [42]: > 100 µM
TGI [57]: > 100 µM
TGI [43]: > 100 µM
TGI [44]: > 100 µM
TGI [45]: > 100 µM
TGI [46]: 69.2 µM
TGI [47]: > 100 µM
TGI [58]: > 100 µM
TGI [48]: > 100 µM
TGI [49]: > 100 µM
TGI [50]: > 100 µM
TGI [51]: > 100 µM
TGI [59]: > 100 µM
TGI [52]: > 100 µM
TGI [54]: > 100 µM
